Results from patent US7279187B2, “Mineral fortification systems” (The Procter & Gamble Company, priority 2003, dated 2007).

Assay: Colour development of iron source when added to water or other aqueous solutions
Format: physicochemical
Source text: Such a color can change the color appearance the food or beverage to which FERROCHEL has been added. In the case of many foods and beverages, this color change would be unacceptable.

SMILES: NCC(=O)[O-].NCC(=O)[O-].[Fe+2] [FERROCHEL]
- Colour imparted when added to water: imparts relatively quickly a deep rusty yellow color
